Measurements from patent US6440978B2, “Therapeutic agent for dermatitis” (Nippon Zoki Pharmaceutical Co., Ltd., priority 2000, dated 2002).

Test system: antigen-induced swelling reaction in a mouse ear
Test: Suppressive action against antigen-induced swelling reaction in a mouse ear
Format: in vivo, BALB/c female mice
Method: Seven week old BALB/c female (SPF) mice of were selected as subjects. According to a method of Tanaka, et al. (Allergy, 46, pages 42-48(1997)), egg white albumin (final concentration: 2 μg/mL) and aluminum hydroxide gel (final concentration: 10 mg/mL) were suspended in physiological saline and 0.5 mL of the suspension was administered to effect intraperitoneal sensitization on the first day of the test. On the 14th day of the test, an additional sensitization was carried out under the same conditions. Further, on the 28th day of the test, 25 μL of egg albumin (a 20 μg/mL solution in physiological saline) was intradermally administered to the right ear of a mouse to induce a swelling reaction.
This swelling reaction reached its peak at 4 hours after the challenge by the antigen. Even after 24 to 48 hours, a significant swelling reaction was noted as compared with the control in which antigen was merely challenged (not sensitized). […] On the contrary, the swelling from 24 to 48 hours after the challenge is thought to be the so-called delayed-type swelling reaction accompanied by infiltration of eosinophils, neutrophils and lymphocytes. In addition, a flare-up reaction having a peak at 24 hours after the challenge appeared on the ear of the antigen-induced site. Like swelling, flare-up is an important symptom of inflammation. Although the mechanism of the flare-up reaction is ambiguous, it may be a flare-up reaction of a delayed type in view of the time course of its expression. As such, this model animal in which the inflammation of both immediate and delayed types are induced is appropriate as a model animal for atopic dermatitis. In the following experiment, the effectiveness of the therapeutic agent for dermatitis according to the present invention was tested using the said model animal.
Each of a vehicle (control) and a test agent (containing the compound of the present invention or a positive control) was applied to the antigen-induced site (right auricle) of a mouse. A swelling reaction was induced in accordance with Example 2 at 2 hours before and 4 hours after the challenge. After the challenge, the thickness of the swelling induced ear was measured by a Dial Thickness Gauge (manufactured by Ozaki Seisakusho). The intensity of the reaction was expressed in terms of an increase in the auricle thickness by deducting the thickness (early value) measured before the challenge from the thickness of the swelling induced ear. The suppression rate of the test drug for ear swelling was calculated by the following formula:
Suppression Rate (%)=100 ×[(Ear Thickness Increase of Vehicle-Only-Control)—(Ear Thickness Increase of the Test Group)]/[(Ear Thickness Increase of the Vehicle-Only-Control)—(Ear Thickness Increase of the Challenge-Only-Group)]

Nc1ccc2c(=O)n(Cc3ccccc3)c(=O)n(-c3ccccc3)c2n1 [Compound 1, 7-amino-3-benzyl-1,2,3,4-tetrahydro-1-phenylpyrido[2,3-d]pyrimidin-2,4-dione]
Ear Thickness Increase at 1 hr after Challenge (Table 1, 1% ointment): 6.3 ± 1.4 × 0.01 mm
Suppression Rate of ear thickness increase at 1 hr after Challenge (Table 1, 1% ointment): (106.1%)
Ear Thickness Increase at 4 hr after Challenge (Table 1, 1% ointment): 18.0 ± 0.9 × 0.01 mm
Suppression Rate of ear thickness increase at 4 hr after Challenge (Table 1, 1% ointment): (34.0%)
Ear Thickness Increase at 8 hr after Challenge (Table 1, 1% ointment): 16.0 ± 0.4 × 0.01 mm
Suppression Rate of ear thickness increase at 8 hr after Challenge (Table 1, 1% ointment): (26.0%)
Ear Thickness Increase at 24 hr after Challenge (Table 1, 1% ointment): 9.3 ± 1.1 × 0.01 mm
Suppression Rate of ear thickness increase at 24 hr after Challenge (Table 1, 1% ointment): (51.3%)
Ear Thickness Increase at 48 hr after Challenge (Table 1, 1% ointment): 6.8 ± 1.0 × 0.01 mm
Suppression Rate of ear thickness increase at 48 hr after Challenge (Table 1, 1% ointment): (47.8%)
Ear Thickness Increase at 1 hr after Challenge (Table 1, 3% ointment): 5.3 ± 0.5 × 0.01 mm
Suppression Rate of ear thickness increase at 1 hr after Challenge (Table 1, 3% ointment): (136.4%)
Ear Thickness Increase at 4 hr after Challenge (Table 1, 3% ointment): 2.3 ± 0.9 × 0.01 mm
Suppression Rate of ear thickness increase at 4 hr after Challenge (Table 1, 3% ointment): (18.4%)
Ear Thickness Increase at 8 hr after Challenge (Table 1, 3% ointment): 15.8 ± 1.4 × 0.01 mm
Suppression Rate of ear thickness increase at 8 hr after Challenge (Table 1, 3% ointment): (27.2%)
Ear Thickness Increase at 24 hr after Challenge (Table 1, 3% ointment): 7.8 ± 0.9 × 0.01 mm
Suppression Rate of ear thickness increase at 24 hr after Challenge (Table 1, 3% ointment): (61.3%)
Ear Thickness Increase at 48 hr after Challenge (Table 1, 3% ointment): 5.3 ± 0.9 × 0.01 mm
Suppression Rate of ear thickness increase at 48 hr after Challenge (Table 1, 3% ointment): (64.1%)
Ear Thickness Increase at 4 hr after Challenge (Table 2, 0.3% ointment): 20.3 ± 2.4 × 0.01 mm
Suppression Rate of ear thickness increase at 4 hr after Challenge (Table 2, 0.3% ointment): (18.7%)
Ear Thickess Increase at 24 hr after Challenge (Table 2, 0.3% ointment): 13.5 ± 1.3 × 0.01 mm
Suppression Rate of ear thickness increase at 24 hr after Challenge (Table 2, 0.3% ointment): (19.4%)
Ear Thickness Increase at 4 hr after Challenge (Table 2, 3% ointment): 13.3 ± 0.3 × 0.01 mm
Suppression Rate of ear thickness increase at 4 hr after Challenge (Table 2, 3% ointment): (49.8%)
Ear Thickess Increase at 24 hr after Challenge (Table 2, 3% ointment): 9.3 ± 1.7 × 0.01 mm
Suppression Rate of ear thickness increase at 24 hr after Challenge (Table 2, 3% ointment): (46.5%)
